Experimental data published in ChEMBL document CHEMBL5625224, “Identification of [1,2,4]Triazolo[4,3-a]pyrazine PARP1 inhibitors with overcome acquired resistance activities” (Eur J Med Chem, 2023).
pIC50: −log10 of the molar value. The source made the active and inactive calls. The rule behind the calls is not given here.

Key:
CAPAN-1 [1] = test: Induction of apoptosis in human CAPAN-1 cells assessed as early apoptotic cells at 0.1 uM incubated for 48 hrs by Annexin-V/PI staining based flow cytometry analysis (reference value: 10.1%); format: functional
[2] = test system: Olaparib-resistant CAPAN-1; test: Induction of apoptosis in human Olaparib-resistant CAPAN-1 cells assessed as early apoptotic cells at 0.5 uM incubated for 48 hrs by Annexin-V/PI staining based flow cytometry analysis (reference value: 8.50%); format: functional
CAPAN-1 [3] = test: Induction of DNA double strand breaks in human CAPAN-1 cells assessed as increase in gamma-H2AX level at 0.1 to 1 uM incubated for 24 hrs by Western blot analysis; format: functional, cell-based; details: dose 0.1-1 µM
[4] = test system: Olaparib-resistant CAPAN-1; test: Induction of DNA double strand breaks in Olaparib-resistant human CAPAN-1 cells assessed as increase in p-ATM foci formation at 0.1 to 1 uM incubated for 24 hrs by DAPI staining based confocal microscopic analysis; format: functional, cell-based; details: dose 0.1-1 µM
[5] = test system: Olaparib-resistant CAPAN-1; test: Induction of DNA double strand breaks in human Olaparib-resistant CAPAN-1 cells assessed as effect on RPA32 phosphorylation at 0.1 to 1 uM incubated for 24 hrs by DAPI staining based confocal microscopic analysis; format: functional, cell-based; details: dose 0.1-1 µM
[6] = test system: Olaparib-resistant CAPAN-1; test: Induction of apoptosis in human Olaparib-resistant CAPAN-1 cells assessed as early apoptotic cells at 1 uM incubated for 48 hrs by Annexin-V/PI staining based flow cytometry analysis (reference value: 8.50%); format: functional
CAPAN-1 [7] = test: Induction of apoptosis in human CAPAN-1 cells assessed as late apoptotic cells at 0.5 uM incubated for 48 hrs by Annexin-V/PI staining based flow cytometry analysis (reference value: 4.95%); format: functional
CAPAN-1 [8] = test: Induction of apoptosis in human CAPAN-1 cells assessed as early apoptotic cells at 1 uM incubated for 48 hrs by Annexin-V/PI staining based flow cytometry analysis (reference value: 10.1%); format: functional
CAPAN-1 [9] = test: Induction of apoptosis in human CAPAN-1 cells assessed as late apoptotic cells at 1 uM incubated for 48 hrs by Annexin-V/PI staining based flow cytometry analysis (reference value: 4.95%); format: functional
[10] = test system: Olaparib-resistant CAPAN-1; test: Induction of DNA double strand breaks in human Olaparib-resistant CAPAN-1 cells assessed as gamma-H2AX foci formation at 0.1 to 1 uM incubated for 24 hrs by DAPI staining based confocal microscopic analysis; format: functional, cell-based; details: dose 0.1-1 µM
[11] = Antiproliferative activity against human Talazoparib-resistant CAPAN-1 cells assessed as inhibition of cell growth incubated for 7 days by CCK-8 assay; format: functional, cell-based; details: CAPAN-1, 168 h
CAPAN-1 [12] = test: Induction of DNA double strand breaks in human CAPAN-1 cells assessed as gamma-H2AX foci formation at 0.1 to 1 uM incubated for 24 hrs by DAPI staining based confocal microscopic analysis; format: functional, cell-based; details: dose 0.1-1 µM
[13] = test system: Olaparib-resistant CAPAN-1; test: Induction of apoptosis in human Olaparib-resistant CAPAN-1 cells assessed as late apoptotic cells at 0.5 uM incubated for 48 hrs by Annexin-V/PI staining based flow cytometry analysis (reference value: 3.67%); format: functional
CAPAN-1 [14] = test: Induction of DNA double strand breaks in human CAPAN-1 cells assessed as effect on RPA32 phosphorylation at 0.1 to 1 uM incubated for 24 hrs by DAPI staining based confocal microscopic analysis; format: functional, cell-based; details: dose 0.1-1 µM
CAPAN-1 [15] = test: Induction of apoptosis in human CAPAN-1 cells assessed as late apoptotic cells at 0.1 uM incubated for 48 hrs by Annexin-V/PI staining based flow cytometry analysis (reference value: 4.95%); format: functional
MDA-MB-436 = test: Antiproliferative activity against human MDA-MB-436 BRCA1-/- cells assessed as inhibition of cell growth incubated for 7 days by CCK-8 assay; format: functional, cell-based; details: MDA-MB-436, 168 h
CAPAN-1 [16] = test: Induction of cell cycle arrest in human CAPAN-1 cells assessed as accumulation of cell at G2/M phase at 0.1 uM incubated for 24 hrs by […] staining based flow cytometry analysis; format: functional
[17] = test system: Olaparib-resistant CAPAN-1; test: Induction of apoptosis in human Olaparib-resistant CAPAN-1 cells assessed as early apoptotic cells at 0.1 uM incubated for 48 hrs by Annexin-V/PI staining based flow cytometry analysis (reference value: 8.50%); format: functional
CAPAN-1 [18] = test: Induction of apoptosis in human CAPAN-1 cells assessed as early apoptotic cells at 0.5 uM incubated for 48 hrs by Annexin-V/PI staining based flow cytometry analysis (reference value: 10.1%); format: functional
[19] = test system: Olaparib-resistant CAPAN-1; test: Antiproliferative activity against human Olaparib-resistant CAPAN-1 cells assessed as inhibition of cell growth incubated for 7 days by CCK-8 assay; format: functional, cell-based; details: Olaparib-resistant CAPAN-1, 168 h
[20] = test system: Olaparib-resistant CAPAN-1; test: Induction of apoptosis in human Olaparib-resistant CAPAN-1 cells assessed as late apoptotic cells at 1 uM incubated for 48 hrs by Annexin-V/PI staining based flow cytometry analysis (reference value: 3.67%); format: functional
[21] = test system: Olaparib-resistant CAPAN-1; test: Induction of apoptosis in human Olaparib-resistant CAPAN-1 cells assessed as late apoptotic cells at 0.1 uM incubated for 48 hrs by Annexin-V/PI staining based flow cytometry analysis (reference value: 3.67%); format: functional
[22] = target: Voltage-gated inwardly rectifying potassium channel KCNH2 (Homo sapiens, UniProt Q12809); test: Inhibition of hERG; format: toxicity
[23] = Antiproliferative activity against human Simmiparib-resistant CAPAN-1 cells assessed as inhibition of cell growth incubated for 7 days by CCK-8 assay; format: functional, cell-based; details: CAPAN-1, 168 h
[24] = target: Poly [ADP-ribose] polymerase 1 (Homo sapiens, UniProt P09874); test: Inhibition of PARP1 (unknown origin) incubated for 1 hr by ELISA analysis
CAPAN-1 [25] = test: Induction of DNA double strand breaks in human CAPAN-1 cells assessed as increase in RPA32 phosphorylation at 0.1 to 1 uM incubated for 24 hrs by Western blot analysis; format: functional, cell-based; details: dose 0.1-1 µM
CAPAN-1 [26] = test: Antiproliferative activity against human CAPAN-1 BRCA2-/- cells assessed as inhibition of cell growth incubated for 7 days by CCK-8 assay; format: functional, cell-based; details: CAPAN-1, 168 h
CAPAN-1 [27] = test: Induction of cell cycle arrest in human CAPAN-1 cells assessed as accumulation of cell at S phase at 0.5 to 1 uM incubated for 24 hrs by […] staining based flow cytometry analysis; format: functional; details: dose 0.5-1 µM
CAPAN-1 [28] = test: Induction of DNA double strand breaks in human CAPAN-1 cells assessed as increase in p-ATM foci formation at 0.1 to 1 uM incubated for 24 hrs by DAPI staining based confocal microscopic analysis; format: functional, cell-based; details: dose 0.1-1 µM
CAPAN-1 [29] = test: Induction of DNA double strand breaks in human CAPAN-1 cells assessed as increase in Chk1 phosphorylation at 0.1 to 1 uM incubated for 24 hrs by Western blot analysis; format: functional, cell-based; details: dose 0.1-1 µM
[30] = test system: Olaparib-resistant CAPAN-1; test: Induction of cell cycle arrest in human Olaparib-resistant CAPAN-1 cells assessed as accumulation of cell at S phase at 0.5 to 1 uM incubated for 24 hrs by […] staining based flow cytometry analysis; format: functional; details: dose 0.5-1 µM

Voltage-gated inwardly rectifying potassium channel KCNH2, sequence (Q12809 whole entry): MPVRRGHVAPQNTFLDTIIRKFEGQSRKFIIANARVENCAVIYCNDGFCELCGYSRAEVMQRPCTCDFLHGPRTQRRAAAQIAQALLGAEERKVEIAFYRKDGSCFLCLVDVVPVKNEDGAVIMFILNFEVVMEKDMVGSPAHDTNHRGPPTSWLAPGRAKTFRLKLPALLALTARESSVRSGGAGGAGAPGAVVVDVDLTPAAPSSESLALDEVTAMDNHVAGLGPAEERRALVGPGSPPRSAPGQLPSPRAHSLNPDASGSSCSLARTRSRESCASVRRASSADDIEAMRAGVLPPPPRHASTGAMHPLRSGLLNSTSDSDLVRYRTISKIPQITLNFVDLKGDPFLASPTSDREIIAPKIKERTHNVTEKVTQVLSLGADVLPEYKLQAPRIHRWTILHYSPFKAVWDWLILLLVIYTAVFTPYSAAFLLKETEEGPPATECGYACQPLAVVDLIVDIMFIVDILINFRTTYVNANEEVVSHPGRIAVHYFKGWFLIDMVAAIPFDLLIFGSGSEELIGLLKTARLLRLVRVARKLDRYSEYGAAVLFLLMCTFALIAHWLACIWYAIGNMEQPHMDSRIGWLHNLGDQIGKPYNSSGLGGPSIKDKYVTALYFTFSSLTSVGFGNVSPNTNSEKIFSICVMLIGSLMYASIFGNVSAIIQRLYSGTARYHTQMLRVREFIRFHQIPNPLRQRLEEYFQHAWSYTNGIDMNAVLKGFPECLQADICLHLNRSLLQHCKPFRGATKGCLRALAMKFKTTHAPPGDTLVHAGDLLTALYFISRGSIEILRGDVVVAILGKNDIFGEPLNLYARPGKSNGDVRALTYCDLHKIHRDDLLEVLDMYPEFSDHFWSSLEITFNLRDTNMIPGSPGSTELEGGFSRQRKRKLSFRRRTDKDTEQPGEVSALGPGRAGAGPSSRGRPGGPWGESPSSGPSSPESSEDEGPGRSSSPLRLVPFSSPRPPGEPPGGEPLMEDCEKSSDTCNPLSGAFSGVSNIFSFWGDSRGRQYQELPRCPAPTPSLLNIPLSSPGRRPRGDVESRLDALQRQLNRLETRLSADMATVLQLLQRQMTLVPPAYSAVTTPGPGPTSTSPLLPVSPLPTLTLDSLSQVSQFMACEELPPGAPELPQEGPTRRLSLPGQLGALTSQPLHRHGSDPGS
Poly [ADP-ribose] polymerase 1, sequence (P09874 whole entry): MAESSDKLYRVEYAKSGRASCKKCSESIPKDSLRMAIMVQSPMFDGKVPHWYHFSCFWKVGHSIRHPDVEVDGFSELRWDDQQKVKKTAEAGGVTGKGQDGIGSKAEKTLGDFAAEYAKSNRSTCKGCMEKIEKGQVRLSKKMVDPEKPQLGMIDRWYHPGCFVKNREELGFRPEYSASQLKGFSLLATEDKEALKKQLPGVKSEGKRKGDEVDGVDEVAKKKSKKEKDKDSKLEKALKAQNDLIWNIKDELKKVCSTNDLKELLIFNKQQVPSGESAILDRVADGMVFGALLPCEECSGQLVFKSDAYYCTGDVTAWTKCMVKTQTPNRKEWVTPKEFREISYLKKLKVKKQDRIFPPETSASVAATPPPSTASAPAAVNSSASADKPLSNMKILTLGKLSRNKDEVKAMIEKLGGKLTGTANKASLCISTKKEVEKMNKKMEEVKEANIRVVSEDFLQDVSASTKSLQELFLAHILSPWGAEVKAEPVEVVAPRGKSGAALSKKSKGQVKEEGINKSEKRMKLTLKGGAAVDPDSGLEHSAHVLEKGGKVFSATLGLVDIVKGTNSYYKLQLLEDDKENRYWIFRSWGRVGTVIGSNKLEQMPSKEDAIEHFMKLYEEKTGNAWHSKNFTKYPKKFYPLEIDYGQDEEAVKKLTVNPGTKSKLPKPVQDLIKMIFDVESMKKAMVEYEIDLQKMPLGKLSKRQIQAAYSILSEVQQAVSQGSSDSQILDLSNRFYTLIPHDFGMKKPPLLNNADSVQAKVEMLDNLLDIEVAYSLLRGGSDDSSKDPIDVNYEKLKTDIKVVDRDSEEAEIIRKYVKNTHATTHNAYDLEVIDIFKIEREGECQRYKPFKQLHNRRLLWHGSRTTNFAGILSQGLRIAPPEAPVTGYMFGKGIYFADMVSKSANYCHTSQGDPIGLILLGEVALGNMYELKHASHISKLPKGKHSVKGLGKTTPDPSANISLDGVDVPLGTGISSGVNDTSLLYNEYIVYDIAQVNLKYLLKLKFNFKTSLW

pIC50 (MDA-MB-436): > 9.52 | pIC50 [24]: 9.22
Structure (SMILES): COc1cccc(-c2nnc3n2C(C)CN(C(=O)c2cc(Cc4n[nH]c(=O)c5ccccc45)ccc2F)C3)n1 (stereo unspecified)
Activity (CAPAN-1 [1]): 37.9% | Activity [2]: 39.1% | Activity (CAPAN-1 [3]): Active | Activity [4]: Active | Activity [5]: Active | Activity [6]: 36.6% | Activity (CAPAN-1 [7]): 42% | Activity (CAPAN-1 [8]): 41% | Activity (CAPAN-1 [9]): 43.9% | Activity [10]: Active | pIC50 [11]: > 9.52 | Activity (CAPAN-1 [12]): Active | Activity [13]: 29% | Activity (CAPAN-1 [14]): Active | Activity (CAPAN-1 [15]): 17.7% | Activity (CAPAN-1 [16]): Active | Activity [17]: 17.6% | Activity (CAPAN-1 [18]): 40.7% | pIC50 [19]: 9.52 | Activity [20]: 30.7% | Activity [21]: 4.6% | pIC50 [22]: 4.76 | pIC50 [23]: 9.52 | Activity (CAPAN-1 [25]): Active | pIC50 (CAPAN-1 [26]): > 9.52 | Activity (CAPAN-1 [27]): Active | Activity (CAPAN-1 [28]): Active | Activity (CAPAN-1 [29]): Active | Activity [30]: Active
